In US10065972B2, “Bicyclic or tricyclic heterocyclic compound” (MITSUBISHI TANABE PHARMA CORPORATION, priority 2014, dated 2018) one finds IC50 data, which are given here for 27 compounds.

Chain of human recombinant KAT-II (Q8N5Z0 30-425): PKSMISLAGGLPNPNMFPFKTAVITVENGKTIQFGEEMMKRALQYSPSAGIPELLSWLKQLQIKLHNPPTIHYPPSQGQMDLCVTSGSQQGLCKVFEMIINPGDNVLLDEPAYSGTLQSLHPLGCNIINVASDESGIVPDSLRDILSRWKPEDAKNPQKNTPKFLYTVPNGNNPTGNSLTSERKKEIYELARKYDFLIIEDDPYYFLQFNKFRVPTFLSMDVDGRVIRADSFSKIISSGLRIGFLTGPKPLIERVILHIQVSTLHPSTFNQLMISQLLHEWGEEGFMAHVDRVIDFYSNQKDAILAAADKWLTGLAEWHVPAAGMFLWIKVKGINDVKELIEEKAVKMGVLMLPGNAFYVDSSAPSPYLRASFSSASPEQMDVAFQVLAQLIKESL

The assay concerns the target human recombinant KAT-II (Homo sapiens (Human), UniProt Q8N5Z0). Kind of assay: KAT-II inhibitory test. It is filed as biochemical. Particulars: 3.0 μmol/L kynurenine, 37° C., 1 hr, pH 8.0; kynurenic acid quantified by HPLC. Here is the method: The compounds described in the above-mentioned Examples were used for the KAT-II inhibitory test.
Preparation of Human Recombinant KAT-II
Human recombinant KAT-II was prepared as follows.
His tag and maltose binding protein tag were added to the N-terminal of a gene encoding human KAT-II (Genbank accession number: AF481738.1), and the obtained gene was incorporated into pET32 (Merck Nihon Millipore), which is an Escherichia coli expression vector. Human recombinant KAT-II produced by BL21(DE3) Escherichia coli (Merck Nihon Millipore, 69450) transformed using the plasmid was purified using an amylose resin column (New England Biolabs, #800-21 L).
The inhibitory action of the test compound on human recombinant KAT-II was determined by the following method.
To a reaction mixture (45 μL) containing 3.0 μmol/L kynurenine, 10 μmol/L pyridoxal phosphate, 2.0 ng/μL human recombinant KAT-II, and 150 mmol/L tris(hydroxymethyl)aminomethane-acetate buffer (pH 8.0) was added a 10% dimethyl sulfoxide solution (5 μL) of each test compound prepared, and the mixture was reacted at 37° C. for 1 hr. After the reaction, 50% trichloroacetic acid (5 μL) was added to terminate the reaction.
The resultant kynurenic acid was quantified as follows by high performance liquid chromatography. An enzyme reaction mixture was separated by an octadecylsilane reversed-phase column (SC-50DS, Eicom Corporation; mobile phase: 250 mmol/L zinc acetate, 50 mmol/L sodium acetate, and 5.0% acetonitrile (pH 6.2)) incubated at 30° C., and kynurenic acid was quantified using a fluorescence detector (RF-20Axs, Shimadzu Corporation) at excitation wavelength 354 nm, detection wavelength 460 nm. The analytical curve was drawn every time by an external standard method. Each test compound was tested by dual measurement at each concentration.
The IC50 is the concentration that inhibits the measured activity by half. On to `Cc1cc(=O)n2nc(N3C[C@@H]4C[C@@H]4[C@@H]3C(=O)NCc3ccccc3)sc2n1` (racemic) [Example 661, (1SR,2RS,5RS)-N-benzyl-3-(7-methyl-5-oxo-5H-[1,3,4]thiadiazolo[3,2-a]pyrimidin-2-yl)-3-azabicyclo[3.1.0]hexane-2-carboxamide], for which the half-inhibitory concentration (IC50) is 3900 nM.
With `Cn1c(CN2CCOCC2)nc2sc([C@H]3CCCN3C(=O)OCc3ccccc3)nc2c1=O` [Example 8, (R)-2-{6-methyl-5-[(morpholin-4-yl)methyl]-7-oxo-6,7-dihydro[1,3]thiazolo[5,4-d]pyrimidin-2-yl}pyrrolidine-1-carboxylic acid benzyl ester], the 50% inhibitory concentration (IC50) amounted to 610 nM.
The value for `CCc1nc2sc([C@H]3CCCN3C(=O)NCc3ccccc3)nc2c(=O)n1C` [Example 9, (R)-N-benzyl-2-(5-ethyl-6-methyl-7-oxo-6,7-dihydro[1,3]thiazolo[5,4-d]pyrimidin-2-yl)pyrrolidine-1-carboxamide] was 250 nM.
The value for `CC(C)n1c(C(F)(F)F)nc2sc([C@H]3CCCN3C(=O)NCc3ccccc3Cl)nc2c1=O` [Example 11, (R)-N-(2-chlorobenzyl)-2-[7-oxo-6-(propan-2-yl)-5-trifluoromethyl-6,7-dihydro[1,3]thiazolo[5,4-d]pyrimidin-2-yl]pyrrolidine-1-carboxamide] was 6200 nM; that for `CCc1nc2sc([C@H]3CCCN3C(=O)NC3(c4ccccc4)CC3)nc2c(=O)n1C` [Example 12, (R)-2-(5-ethyl-6-methyl-7-oxo-6,7-dihydro[1,3]thiazolo[5,4-d]pyrimidin-2-yl)-N-(1-phenylcyclopropyl)pyrrolidine-1-carboxamide] was 130 nM.
The value for `CCc1nc2sc([C@H]3CCCN3C(=O)N[C@@H]3CCc4ccccc43)nc2c(=O)n1C` [Example 13, (R)-5-ethyl-2-{1-[((R)-indan-1-yl)aminocarbonyl]pyrrolidin-2-yl}-6-methyl-6,7-dihydro[1,3]thiazolo[5,4-d]pyrimidin-7-one] was 560 nM; that for `CCc1nc2sc([C@H]3CCCN3C(=O)CN3CCCc4ccccc43)nc2c(=O)n1C` [Example 14, (R)-2-{1-[2-(3,4-dihydro-2H-quinolin-1-yl)acetyl]pyrrolidin-2-yl}-5-ethyl-6-methyl-6H-[1,3]thiazolo[5,4-d]pyrimidin-7-one] was 57 nM.
On to `CCc1nc2sc([C@H]3CCCN3C(=O)NC(C)(C)c3ccccc3)nc2c(=O)n1C` [Example 15, (R)-2-(5-ethyl-6-methyl-7-oxo-6,7-dihydro[1,3]thiazolo[5,4-d]pyrimidin-2-yl)-N-(1-methyl-1-phenylethyl)pyrrolidine-1-carboxamide], for which the IC50 amounted to 1100 nM.
The figure for `CCc1nc2sc([C@H]3CCCN3C(=O)N[C@H](C)c3ccccc3)nc2c(=O)n1C` [Example 17, (R)-2-(5-ethyl-6-methyl-7-oxo-6,7-dihydro[1,3]thiazolo[5,4-d]pyrimidin-2-yl)-N-((R)-1-phenylethyl)pyrrolidine-1-carboxamide] is 1600 nM.
The figure for `Cc1noc(-c2nc3sc([C@H]4CCCN4C(=O)Oc4ccccc4)nc3c(=O)n2C)n1` [Example 19, (R)-2-[6-methyl-5-(3-methyl-[1,2,4]oxadiazol-5-yl)-7-oxo-6,7-dihydro[1,3]thiazolo[5,4-d]pyrimidin-2-yl]pyrrolidine-1-carboxylic acid phenyl ester] is 43 nM; for `CCc1nc2sc([C@H]3CCCN3C(=O)Oc3ccccc3)nc2c(=O)n1C` [Example 28, (R)-2-(5-ethyl-6-methyl-7-oxo-6,7-dihydro[1,3]thiazolo[5,4-d]pyrimidin-2-yl)pyrrolidine-1-carboxylic acid phenyl ester] it is 25 nM.
Turning to `Cc1nc2sc([C@H]3CCCN3C(=O)Oc3ccccc3)nc2c(=O)n1C1CCOCC1` [Example 32, (R)-2-[5-methyl-7-oxo-6-(tetrahydro-2H-pyran-4-yl)-6,7-dihydro[1,3]thiazolo[5,4-d]pyrimidin-2-yl]pyrrolidine-1-carboxylic acid phenyl ester], the IC50 worked out at 400 nM.
The figure for `Cc1cccc(OC(=O)N2CCC[C@@H]2c2nc3c(=O)n(C)c(C4CCOCC4)nc3s2)c1` [Example 36, (R)-2-[6-methyl-7-oxo-5-(tetrahydro-2H-pyran-4-yl)-6,7-dihydro[1,3]thiazolo[5,4-d]pyrimidin-2-yl]pyrrolidine-1-carboxylic acid 3-methylphenyl ester] is 18 nM; for `CC(C)c1nc2sc([C@H]3CCCN3C(=O)Oc3ccccc3)nc2c(=O)[nH]1` [Example 63, (R)-2-[7-oxo-5-(propan-2-yl)-6,7-dihydro[1,3]thiazolo[5,4-d]pyrimidin-2-yl]pyrrolidine-1-carboxylic acid phenyl ester] it is 15 nM; for `O=C(Oc1ccccc1)N1CCC[C@@H]1c1nc2c(=O)[nH]c(-c3ccccc3)nc2s1` [Example 65, (R)-2-(7-oxo-5-phenyl-6,7-dihydro[1,3]thiazolo[5,4-d]pyrimidin-2-yl)pyrrolidine-1-carboxylic acid phenyl ester] it is 25 nM.
The value for `O=C(Oc1ccccc1)N1CCC[C@@H]1c1nc2c(=O)[nH]c(-c3ccc(F)cc3F)nc2s1` [Example 67, (R)-2-[5-(2,4-difluorophenyl)-7-oxo-6,7-dihydro[1,3]thiazolo[5,4-d]pyrimidin-2-yl]pyrrolidine-1-carboxylic acid phenyl ester] was 14 nM; that for `Cc1ccccc1-c1nc2sc([C@H]3CCCN3C(=O)Oc3ccccc3)nc2c(=O)[nH]1` [Example 69, (R)-2-[5-(2-methylphenyl)-7-oxo-6,7-dihydro[1,3]thiazolo[5,4-d]pyrimidin-2-yl]pyrrolidine-1-carboxylic acid phenyl ester] was 40 nM; that for `O=C(Oc1ccccc1)N1CCC[C@@H]1c1nc2c(=O)[nH]c(C3CCC(F)(F)CC3)nc2s1` [Example 74, (R)-2-[5-(4,4-difluorocyclohexyl)-7-oxo-6,7-dihydro[1,3]thiazolo[5,4-d]pyrimidin-2-yl]pyrrolidine-1-carboxylic acid phenyl ester] was 84 nM.
The figure for `O=C(Oc1ccccc1)N1CCC[C@@H]1c1nc2c(=O)[nH]c(C3(CF)CC3)nc2s1` [Example 80, (R)-2-{5-[1-(fluoromethyl)cyclopropyl]-7-oxo-6,7-dihydro[1,3]thiazolo[5,4-d]pyrimidin-2-yl}pyrrolidine-1-carboxylic acid phenyl ester] is 8.6 nM.
`C[C@H](c1nc2c(=O)[nH]c(C3(Cl)CC3)nc2s1)N(C)C(=O)Oc1ccccc1` [Example 85, N-{(R)-1-[5-(1-chlorocyclopropyl)-7-oxo-6,7-dihydro[1,3]thiazolo[5,4-d]pyrimidin-2-yl]ethyl}-N-methylcarbamic acid phenyl ester]: the half-inhibitory concentration (IC50) is 170 nM.
Consider `Cc1cccc(OC(=O)N2CCC[C@@H]2c2nc3c(=O)[nH]c(C4(C#N)CC4)nc3s2)c1` [Example 94, (R)-2-[5-(1-cyanocyclopropyl)-7-oxo-6,7-dihydro[1,3]thiazolo[5,4-d]pyrimidin-2-yl]pyrrolidine-1-carboxylic acid 3-methylphenyl ester], for which the IC50 is 6.1 nM.
The figure for `COCC1(c2nc3sc([C@H]4CCCN4C(=O)Oc4ccccc4)nc3c(=O)[nH]2)CC1` [Example 96, (R)-2-{5-[1-(methoxymethyl)cyclopropyl]-7-oxo-6,7-dihydro[1,3]thiazolo[5,4-d]pyrimidin-2-yl}pyrrolidine-1-carboxylic acid phenyl ester] is 19 nM; for `O=C(Cc1ccccc1)N1CCC[C@@H]1c1nc2c(=O)[nH]c(C3(C(F)(F)F)CC3)nc2s1` [Example 97, 2-[(R)-1-(phenylacetyl)pyrrolidin-2-yl]-5-[1-(trifluoromethyl)cyclopropyl]-6H-[1,3]thiazolo[5,4-d]pyrimidin-7-one] it is 13 nM.
The figure for `Cc1cccc(CC(=O)N2CCC[C@@H]2c2nc3c(=O)[nH]c(C4(C(F)(F)F)CC4)nc3s2)c1` [Example 98, 2-{(R)-1-[2-(3-methylphenyl)acetyl]pyrrolidin-2-yl}-5-[1-(trifluoromethyl)cyclopropyl]-6H-[1,3]thiazolo[5,4-d]pyrimidin-7-one] is 37 nM; for `CC1(Oc2nc3sc([C@H]4CCCN4C(=O)Oc4ccccc4)nc3c(=O)[nH]2)CC1` [Example 104, (R)-2-[5-(1-methylcyclopropoxy)-7-oxo-6,7-dihydro[1,3]thiazolo[5,4-d]pyrimidin-2-yl]pyrrolidine-1-carboxylic acid phenyl ester] it is 73 nM; for `O=C(Oc1ccccc1)N1CCC[C@@H]1c1nc2c(=O)[nH]c(OCC(F)(F)F)nc2s1` [Example 105, (R)-2-[7-oxo-5-(2,2,2-trifluoroethoxy)-6,7-dihydro[1,3]thiazolo[5,4-d]pyrimidin-2-yl]pyrrolidine-1-carboxylic acid phenyl ester] it is 65 nM.
The value for `CN(C)c1nc2sc([C@H]3CCCN3C(=O)Oc3ccccc3)nc2c(=O)[nH]1` [Example 106, (R)-2-[5-(N,N-dimethylamino)-7-oxo-6,7-dihydro[1,3]thiazolo[5,4-d]pyrimidin-2-yl]pyrrolidine-1-carboxylic acid phenyl ester] was 69 nM.
